Where two headings read alike, the source gives them in different places.
Key:
[1] = system: MYC protein expression in MCF-7 breast cancer cells; test: Western blotting of MYC protein level in MCF-7 cells; format: cell-based, human; settings: Homo sapiens, MCF7; western blotting, MCF-7 cells, 0.5, 1, 2, and 4 μM, 24 hours; read-out: MYC Inhibition
In short: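 Immunoblotting with ECL detection quantified MYC, with GAPDH (1:2000) as reference and anti-MYC at 1:1000.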

NCI-60 cancer cell lines = test: NCI-60 cancer cell line drug screen (GI50, MGM); format: cell-based, human; settings: Homo sapiens
Procedure: Cancer cells were incubated with the test compounds at five concentrations ranging from 100 μM to 10 nM for 48 h. […] The approximate average of GI50 values across the entire panel of NCI-60 cancer cell lines for each compound was recorded as the MGM value.

**Q.** With `COc1cc2c3c(n(CCCn4ccnc4)c(=O)c2cc1OC)-c1cc2c(cc1C3=O)OCO2` [Compound 42] as the molecule, how does the minimal effective concentration [1] read?
**A.** 0.5 to 1 µM

**Q.** What about the GI50 (NCI-60 cancer cell lines; 786-0, Renal Cancer, 786-0, read-out: Antiproliferative Activities [GI50 (μM)]) of the same molecule?
**A.** < 0.01 µM

**Q.** What about the GI50 (NCI-60 cancer cell lines; A498, Renal Cancer, A498, read-out: Antiproliferative Activities [GI50 (μM)]) of the same molecule?
**A.** 7.17 µM

**Q.** And the GI50 (NCI-60 cancer cell lines; A549, Non-Small Cell Lung Cancer, A549/ATCC, read-out: Antiproliferative Activities [GI50 (μM)])?
**A.** 10.5 µM

**Q.** And the GI50 (NCI-60 cancer cell lines; ACHN, Renal Cancer, ACHN, read-out: Antiproliferative Activities [GI50 (μM)])?
**A.** < 0.01 µM

**Q.** What about the GI50 (NCI-60 cancer cell lines; CAKI-1, Renal Cancer, CAKI-1, read-out: Antiproliferative Activities [GI50 (μM)]) of the same molecule?
**A.** 0.32 µM

**Q.** And the GI50 (NCI-60 cancer cell lines; CCRF-CEM, Leukemia, CCRF-CEM, read-out: Antiproliferative Activities [GI50 (μM)])?
**A.** < 0.01 µM

**Q.** And the GI50 (NCI-60 cancer cell lines; COLO 205, Colon Cancer, COLO 205, read-out: Antiproliferative Activities [GI50 (μM)])?
**A.** > 100 µM

**Q.** And the GI50 (NCI-60 cancer cell lines; DU-145, Prostate Cancer, DU-145, read-out: Antiproliferative Activities [GI50 (μM)])?
**A.** < 0.01 µM

**Q.** What about the GI50 (NCI-60 cancer cell lines; EKVX, Non-Small Cell Lung Cancer, EKVX, read-out: Antiproliferative Activities [GI50 (μM)]) of the same molecule?
**A.** 70.7 µM

**Q.** And the GI50 (NCI-60 cancer cell lines; HCC 2998, Colon Cancer, HCC-2998, read-out: Antiproliferative Activities [GI50 (μM)])?
**A.** 29.3 µM

**Q.** And the GI50 (NCI-60 cancer cell lines; HCT-15, Colon Cancer, HCT-15, read-out: Antiproliferative Activities [GI50 (μM)])?
**A.** > 100 µM

**Q.** And the GI50 (NCI-60 cancer cell lines; HCT-116, Colon Cancer, HCT-116, read-out: Antiproliferative Activities [GI50 (μM)])?
**A.** 0.17 µM

**Q.** What about the GI50 (NCI-60 cancer cell lines; HL-60, read-out: Antiproliferative Activities [GI50 (μM)]) of the same molecule?
**A.** 0.02 µM

**Q.** And the GI50 (NCI-60 cancer cell lines; HOP-62, Non-Small Cell Lung Cancer, HOP-62, read-out: Antiproliferative Activities [GI50 (μM)])?
**A.** < 0.01 µM

**Q.** And the GI50 (NCI-60 cancer cell lines; HOP-92, Non-Small Cell Lung Cancer, HOP-92, read-out: Antiproliferative Activities [GI50 (μM)])?
**A.** 0.19 µM

**Q.** And the GI50 (NCI-60 cancer cell lines; HT-29, Colon Cancer, HT29, read-out: Antiproliferative Activities [GI50 (μM)])?
**A.** > 100 µM

**Q.** And the GI50 (NCI-60 cancer cell lines; Hs-578T, Breast Cancer, HS 578T, read-out: Antiproliferative Activities [GI50 (μM)])?
**A.** 54.2 µM

**Q.** And the GI50 (NCI-60 cancer cell lines; IGROV-1, Ovarian Cancer, IGROV1, read-out: Antiproliferative Activities [GI50 (μM)])?
**A.** 6.72 µM

**Q.** What about the GI50 (NCI-60 cancer cell lines; K562, Leukemia, K-562, read-out: Antiproliferative Activities [GI50 (μM)]) of the same molecule?
**A.** 1.49 µM

**Q.** And the GI50 (NCI-60 cancer cell lines; KM12, Colon Cancer, KM12, read-out: Antiproliferative Activities [GI50 (μM)])?
**A.** > 100 µM

**Q.** And the GI50 (NCI-60 cancer cell lines; LOX IMVI, Melanoma, LOX IMVI, read-out: Antiproliferative Activities [GI50 (μM)])?
**A.** 0.06 µM

**Q.** And the GI50 (NCI-60 cancer cell lines; Leukemia, SR, read-out: Antiproliferative Activities [GI50 (μM)])?
**A.** < 0.01 µM

**Q.** What about the GI50 (NCI-60 cancer cell lines; MCF7, Breast Cancer, MCF7, read-out: Antiproliferative Activities [GI50 (μM)]) of the same molecule?
**A.** < 0.01 µM

**Q.** And the GI50 (NCI-60 cancer cell lines; MDA-MB-231, Breast Cancer, MDA-MB-231/ATCC, read-out: Antiproliferative Activities [GI50 (μM)])?
**A.** 77.8 µM

**Q.** And the GI50 (NCI-60 cancer cell lines; MDA-MB-435, Melanoma, MDA-MB-435, read-out: Antiproliferative Activities [GI50 (μM)])?
**A.** > 100 µM

**Q.** What about the GI50 (NCI-60 cancer cell lines; MOLT-4, Leukemia, MOLT-4, read-out: Antiproliferative Activities [GI50 (μM)]) of the same molecule?
**A.** < 0.01 µM

**Q.** What about the GI50 (NCI-60 cancer cell lines; Malme-3M, Melanoma, MALME-3M, read-out: Antiproliferative Activities [GI50 (μM)]) of the same molecule?
**A.** 1.6 µM

**Q.** What about the GI50 (NCI-60 cancer cell lines; Melanoma, M14, read-out: Antiproliferative Activities [GI50 (μM)]) of the same molecule?
**A.** < 0.01 µM

**Q.** What about the GI50 (NCI-60 cancer cell lines; NCI-H23, Non-Small Cell Lung Cancer, NCI-H23, read-out: Antiproliferative Activities [GI50 (μM)]) of the same molecule?
**A.** 0.09 µM

**Q.** And the GI50 (NCI-60 cancer cell lines; NCI-H226, Non-Small Cell Lung Cancer, NCI-H226, read-out: Antiproliferative Activities [GI50 (μM)])?
**A.** 0.37 µM

**Q.** What about the GI50 (NCI-60 cancer cell lines; NCI-H322M, Non-Small Cell Lung Cancer, NCI-H322M, read-out: Antiproliferative Activities [GI50 (μM)]) of the same molecule?
**A.** > 100 µM

**Q.** What about the GI50 (NCI-60 cancer cell lines; NCI-H460, Non-Small Cell Lung Cancer, NCI-H460, read-out: Antiproliferative Activities [GI50 (μM)]) of the same molecule?
**A.** < 0.01 µM

**Q.** And the GI50 (NCI-60 cancer cell lines; NCI-H522, Non-Small Cell Lung Cancer, NCI-H522, read-out: Antiproliferative Activities [GI50 (μM)])?
**A.** < 0.01 µM

**Q.** And the GI50 (NCI-60 cancer cell lines; OVCAR-3, Ovarian Cancer, OVCAR-3, read-out: Antiproliferative Activities [GI50 (μM)])?
**A.** 16.4 µM

**Q.** And the GI50 (NCI-60 cancer cell lines; OVCAR-4, Ovarian Cancer, OVCAR-4, read-out: Antiproliferative Activities [GI50 (μM)])?
**A.** > 100 µM

**Q.** What about the GI50 (NCI-60 cancer cell lines; OVCAR-5, Ovarian Cancer, OVCAR-5, read-out: Antiproliferative Activities [GI50 (μM)]) of the same molecule?
**A.** > 100 µM

**Q.** What about the GI50 (NCI-60 cancer cell lines; OVCAR-8, Ovarian Cancer, OVCAR-8, read-out: Antiproliferative Activities [GI50 (μM)]) of the same molecule?
**A.** 1.03 µM

**Q.** What about the GI50 (NCI-60 cancer cell lines; Ovarian Cancer, NCl/ADR-RES, read-out: Antiproliferative Activities [GI50 (μM)]) of the same molecule?
**A.** 0.35 µM

**Q.** And the GI50 (NCI-60 cancer cell lines; Prostate Cancer, PC-3, read-out: Antiproliferative Activities [GI50 (μM)])?
**A.** 34.9 µM

**Q.** And the GI50 (NCI-60 cancer cell lines; RPMI-8226, Leukemia, RPMI-8226, read-out: Antiproliferative Activities [GI50 (μM)])?
**A.** < 0.01 µM

**Q.** And the GI50 (NCI-60 cancer cell lines; RXF 393, Renal Cancer, RXF 393, read-out: Antiproliferative Activities [GI50 (μM)])?
**A.** 8 µM

**Q.** What about the GI50 (NCI-60 cancer cell lines; Renal Cancer, U0-31, read-out: Antiproliferative Activities [GI50 (μM)]) of the same molecule?
**A.** 0.03 µM

**Q.** And the GI50 (NCI-60 cancer cell lines; SF-295, CNS Cancer, SF-295, read-out: Antiproliferative Activities [GI50 (μM)])?
**A.** < 0.01 µM

**Q.** What about the GI50 (NCI-60 cancer cell lines; SF-539, CNS Cancer, SF-539, read-out: Antiproliferative Activities [GI50 (μM)]) of the same molecule?
**A.** < 0.01 µM

**Q.** What about the GI50 (NCI-60 cancer cell lines; SK-MEL-2, Melanoma, SK-MEL-2, read-out: Antiproliferative Activities [GI50 (μM)]) of the same molecule?
**A.** > 100 µM

**Q.** What about the GI50 (NCI-60 cancer cell lines; SK-MEL-5, Melanoma, SK-MEL-5, read-out: Antiproliferative Activities [GI50 (μM)]) of the same molecule?
**A.** 0.22 µM

**Q.** And the GI50 (NCI-60 cancer cell lines; SK-MEL-28, Melanoma, SK-MEL-28, read-out: Antiproliferative Activities [GI50 (μM)])?
**A.** > 100 µM

**Q.** And the GI50 (NCI-60 cancer cell lines; SK-OV-3, Ovarian Cancer, SK-OV-3, read-out: Antiproliferative Activities [GI50 (μM)])?
**A.** < 0.01 µM

**Q.** What about the GI50 (NCI-60 cancer cell lines; SN12C, Renal Cancer, SN12C, read-out: Antiproliferative Activities [GI50 (μM)]) of the same molecule?
**A.** < 0.01 µM

**Q.** What about the GI50 (NCI-60 cancer cell lines; SNB-19, CNS Cancer, SNB-19, read-out: Antiproliferative Activities [GI50 (μM)]) of the same molecule?
**A.** < 0.01 µM

**Q.** What about the GI50 (NCI-60 cancer cell lines; SNB-75, CNS Cancer, SNB-75, read-out: Antiproliferative Activities [GI50 (μM)]) of the same molecule?
**A.** 0.23 µM

**Q.** And the GI50 (NCI-60 cancer cell lines; SW-620, Colon Cancer, SW-620, read-out: Antiproliferative Activities [GI50 (μM)])?
**A.** 0.06 µM

**Q.** And the GI50 (NCI-60 cancer cell lines; T47D, Breast Cancer, T-47D, read-out: Antiproliferative Activities [GI50 (μM)])?
**A.** < 0.01 µM

**Q.** What about the GI50 (NCI-60 cancer cell lines; TK-10, Renal Cancer, TK-10, read-out: Antiproliferative Activities [GI50 (μM)]) of the same molecule?
**A.** 73.7 µM

**Q.** And the GI50 (NCI-60 cancer cell lines; U-251, CNS Cancer, U251, read-out: Antiproliferative Activities [GI50 (μM)])?
**A.** < 0.01 µM

**Q.** What about the GI50 (NCI-60 cancer cell lines; UACC-62, Melanoma, UACC-62, read-out: Antiproliferative Activities [GI50 (μM)]) of the same molecule?
**A.** < 0.01 µM

**Q.** What about the GI50 (NCI-60 cancer cell lines; UACC-257, Melanoma, UACC-257, read-out: Antiproliferative Activities [GI50 (μM)]) of the same molecule?
**A.** > 100 µM

Source: patent US20210382058A1, “PATIENT SELECTION FOR TREATMENT OF MYC POSITIVE CANCERS WITH INDENOISOQUINOLINES” (Purdue Research Foundation, priority 2020, published 2021)
